These are literature values, as cited in patent US12187744B2, “IRAK4 degraders and synthesis thereof” (Kymera Therapeutics, Inc., priority 2021, dated 2025).

For data set [1] the following is noted: per ICH M7(R1) guidance.
The conditions of data set [2]: in vivo.

For `CC(C)Cl` [Isopropyl chloride], the “ICH M7(R1) Class” value in data set [1] is listed as 2.

As for `CI` [Methyl iodide], in data set [2], the “results in rodent carcinogenicity assays” value is recorded as “positive”.
